In patent publication US11040036B2, “Pyruvate kinase activators for use in treating blood disorders” (Agios Pharmaceuticals, Inc., priority 2017, dated 2021):

Columns and labels:
[1] = biological target: T1, wild type PKR (Homo sapiens, UniProt P30613); experiment: PKR mutant assay (AC50), wild type PKR; assay type: biochemical; details: wild type PKR enzyme; read-out: PKR WT AC50
How it was run: (§1)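 Human wild-type PKR or R510Q/K410E mutant (40-400 ng/well) in 50 mM Tris pH 7.5, 100 mM KCl, 5 mM MgCl2, 1 mM DTT, 0.03% BSA with PEP 0.1-0.5 mM, 180 μM NADH and LDH coupling. Compound (11-point 3-fold series from 100 μM final) preincubated 60 min at room temperature. Reaction was started with ADP (0.2-1.65 mM) and NADH depletion was followed at 340 nm to give AC50.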

[2] = biological target: PKR K410E (Homo sapiens, UniProt P30613, K410E); experiment: PKR mutant assay (AC50), PKR K410E; assay type: biochemical; details: PKR K410E mutant enzyme
Chain of PKR K410E (P30613 whole entry K410E): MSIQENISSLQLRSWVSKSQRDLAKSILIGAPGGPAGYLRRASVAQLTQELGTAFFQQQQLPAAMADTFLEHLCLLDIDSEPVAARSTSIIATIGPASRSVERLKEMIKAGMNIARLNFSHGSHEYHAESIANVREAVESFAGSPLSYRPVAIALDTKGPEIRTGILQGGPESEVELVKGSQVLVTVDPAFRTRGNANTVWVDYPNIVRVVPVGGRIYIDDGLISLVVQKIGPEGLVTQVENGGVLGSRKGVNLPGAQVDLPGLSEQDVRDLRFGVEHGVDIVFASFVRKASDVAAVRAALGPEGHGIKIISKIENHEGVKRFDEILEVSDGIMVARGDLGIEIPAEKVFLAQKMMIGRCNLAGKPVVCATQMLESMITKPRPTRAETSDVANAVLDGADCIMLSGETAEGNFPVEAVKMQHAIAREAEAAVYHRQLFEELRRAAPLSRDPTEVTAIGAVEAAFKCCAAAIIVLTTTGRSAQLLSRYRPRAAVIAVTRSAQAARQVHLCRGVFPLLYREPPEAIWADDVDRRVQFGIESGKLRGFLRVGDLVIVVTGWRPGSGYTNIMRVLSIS
How it was run: as §1

[3] = biological target: PKR R510Q (Homo sapiens, UniProt P30613, R510Q); experiment: PKR mutant assay (AC50), PKR R510Q; assay type: biochemical; details: PKR R510Q mutant enzyme; read-out: PK R510Q AC50
Chain of PKR R510Q (P30613 whole entry R510Q): as the sequence (P30613 whole entry K410E) above, with E410K, R510Q counted along it
How it was run: as §1

[4] = biological target: T1, wild type PKR; experiment: Cell based ATP assay in purified red blood cells; parameters: endogenous in cells; host or cells: purified red blood cells from blood of healthy volunteers; details: RBCs, overnight at 37° C., ATP levels by Cell-Titer-Glo
How it was run: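 Leukocyte-depleted red cells from healthy volunteers were held in AGAM (PBS, glucose, adenine, mannitol) at 1×10^7 cells/mL. They were treated with 1:4 serial compound dilutions at 0.1% DMSO final and incubated overnight at 37 °C in humidity. ATP was then quantified by CellTiter-Glo luminescence.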

T1 sequence (P30613 whole entry): as the sequence (P30613 whole entry K410E) above, with E410K counted along it

| SMILES | AC50 [1] | AC50 [2] | AC50 [3] | AC50 [4] |
| --- | --- | --- | --- | --- |
| Cn1c2nc(Cc3cc[nH]n3)sc2c2cnn(Cc3nc(C(N)=O)cs3)c(=O)c21 | < 300 nM | < 300 nM | < 300 nM | ≤ 1000 nM |
| Cn1c2nc(Cc3cc[nH]n3)sc2c2cnn(Cc3cccc(C#N)n3)c(=O)c21 | < 300 nM | < 300 nM | < 300 nM | ≤ 1000 nM |
| Cn1c2nc(Cc3cc[nH]n3)sc2c2cnn(Cc3cccc(NO)n3)c(=O)c21 | < 300 nM | < 300 nM | < 300 nM | ≤ 1000 nM |
| Cn1cc(OC(F)(F)F)c(Cn2ncc3c4sc(Cc5cc[nH]n5)nc4n(C)c3c2=O)n1 | < 300 nM | < 300 nM | < 300 nM | ≤ 1000 nM |
| Cn1c2nc(Cc3cc[nH]n3)sc2c2cnn(Cc3c[nH]c(C(N)=O)n3)c(=O)c21 | < 300 nM | < 300 nM | < 300 nM | ≤ 1000 nM |
| CN(C)c1cccc(Cn2ncc3c4sc(Cc5cc[nH]n5)nc4n(C)c3c2=O)n1 | < 300 nM | < 300 nM | < 300 nM | ≤ 1000 nM |
| Cn1cc(CC(N)=O)c(Cn2ncc3c4sc(Cc5cc[nH]n5)nc4n(C)c3c2=O)n1 | > 800 nM | > 800 nM | > 800 nM | > 1000 nM |
| COc1sc(Br)nc1Cc1nc2c(s1)c1cnn(Cc3cc[nH]n3)c(=O)c1n2C | < 300 nM | < 300 nM | < 300 nM | ≤ 1000 nM |
| Cn1c2nc(Cc3cc[nH]n3)sc2c2cnn(Cc3ccncc3)c(=O)c21 | < 300 nM | < 300 nM | < 300 nM | ≤ 1000 nM |
| COCc1cn(C)nc1Cn1ncc2c3sc(Cc4cc[nH]n4)nc3n(C)c2c1=O | > 800 nM | > 800 nM | > 800 nM | > 1000 nM |
| Cn1ccc(Cn2ncc3c4sc(Cc5c[nH]nn5)nc4n(C)c3c2=O)n1 | < 300 nM | < 300 nM | < 300 nM | ≤ 1000 nM |
| Cn1c2nc(Cc3cc[nH]n3)sc2c2cnn(Cc3n[nH]c(=O)[nH]3)c(=O)c21 | > 800 nM | > 800 nM | > 800 nM | > 1000 nM |
| Cn1c2nc(Cc3cscn3)sc2c2cnn(Cc3nccs3)c(=O)c21 | < 300 nM | < 300 nM | < 300 nM | ≤ 1000 nM |
| CNc1ccc(F)c(Cc2nc3c(s2)c2cnn(Cc4c[nH]nn4)c(=O)c2n3C)n1 | < 300 nM | < 300 nM | < 300 nM | ≤ 1000 nM |
| Cn1c2nc(Cc3ccccn3)sc2c2cnn(Cc3c[nH]nn3)c(=O)c21 | < 300 nM | < 300 nM | < 300 nM | ≤ 1000 nM |
| Cn1c2nc(Cc3ccccn3)sc2c2cnn(Cc3cscn3)c(=O)c21 | < 300 nM | < 300 nM | < 300 nM | ≤ 1000 nM |
| Cn1c2nc(Cc3cc[nH]n3)sc2c2cnn(Cc3cccc(C(N)=O)n3)c(=O)c21 | < 300 nM | < 300 nM | < 300 nM | ≤ 1000 nM |
| Cn1c2nc(Cc3n[nH]cc3F)sc2c2cnn(Cc3n[nH]cc3F)c(=O)c21 | < 300 nM | < 300 nM | < 300 nM | ≤ 1000 nM |
| Cn1c2nc(Cc3n[nH]cc3F)sc2c2cnn(Cc3c[nH]nn3)c(=O)c21 | < 300 nM | < 300 nM | < 300 nM | ≤ 1000 nM |
| Cn1cc(C(N)=O)c(Cn2ncc3c4sc(Cc5cc[nH]n5)nc4n(C)c3c2=O)n1 | > 800 nM | 301 to 800 nM | > 800 nM | > 1000 nM |
| Cn1c2nc(Cc3ccccn3)sc2c2cnn(Cc3cccc(N)n3)c(=O)c21 | < 300 nM | < 300 nM | < 300 nM | ≤ 1000 nM |
| Cn1c2nc(Cc3cc[nH]n3)sc2c2cnn(Cc3ncsc3C#N)c(=O)c21 | < 300 nM | < 300 nM | < 300 nM | ≤ 1000 nM |
| Cc1ccc(Cn2ncc3c4sc(Cc5cc[nH]n5)nc4n(C)c3c2=O)nc1Cl | < 300 nM | < 300 nM | < 300 nM | ≤ 1000 nM |
| Cn1c2nc(Cc3ccccn3)sc2c2cnn(Cc3n[nH]cc3F)c(=O)c21 | < 300 nM | < 300 nM | < 300 nM | ≤ 1000 nM |

Further lines, results first:

| AC50 [1] | AC50 [2] | AC50 [3] | AC50 [4] | SMILES |
| --- | --- | --- | --- | --- |
| < 300 nM | < 300 nM | < 300 nM | ≤ 1000 nM | Cn1c2nc(Cc3cc[nH]n3)sc2c2cnn(Cc3cnc(N)s3)c(=O)c21 |
| < 300 nM | < 300 nM | < 300 nM | ≤ 1000 nM | Cn1c2nc(Cc3cc[nH]n3)sc2c2cnn(Cc3ccnn3N)c(=O)c21 |
| > 800 nM | > 800 nM | > 800 nM | > 1000 nM | Cn1c2nc(Cn3cnnc3)sc2c2cnn(Cc3cc[nH]n3)c(=O)c21 |
| < 300 nM | < 300 nM | < 300 nM | ≤ 1000 nM | Cn1c2nc(Cc3cc[nH]n3)sc2c2cnn(Cc3ccccn3)c(=O)c21 |
| < 300 nM | < 300 nM | < 300 nM | ≤ 1000 nM | Cn1c2nc(Cc3cc[nH]n3)sc2c2cnn(Cc3nccs3)c(=O)c21 |
| < 300 nM | < 300 nM | < 300 nM | ≤ 1000 nM | Cn1c2nc(Cn3cncn3)sc2c2cnn(Cc3cc[nH]n3)c(=O)c21 |
| < 300 nM | 301 to 800 nM | < 300 nM | ≤ 1000 nM | Cn1c2nc(Cc3cc[nH]n3)sc2c2cnn(Cc3nccc(N)n3)c(=O)c21 |
| < 300 nM | < 300 nM | < 300 nM | ≤ 1000 nM | COc1cccc(Cn2ncc3c4sc(Cc5cc[nH]n5)nc4n(C)c3c2=O)n1 |
| < 300 nM | < 300 nM | < 300 nM | ≤ 1000 nM | Cn1cc(F)c(Cn2ncc3c4sc(Cc5cc[nH]n5)nc4n(C)c3c2=O)n1 |
| < 300 nM | < 300 nM | < 300 nM | ≤ 1000 nM | Cn1c2nc(Cc3cc[nH]n3)sc2c2cnn(Cc3ncsc3F)c(=O)c21 |
| < 300 nM | < 300 nM | < 300 nM | ≤ 1000 nM | Cc1cccc(Cn2ncc3c4sc(Cc5cc[nH]n5)nc4n(C)c3c2=O)n1 |
| < 300 nM | < 300 nM | 301 to 800 nM | ≤ 1000 nM | Cn1c2nc(Cc3cc[nH]n3)sc2c2cnn(Cc3cnc(N)o3)c(=O)c21 |
| < 300 nM | < 300 nM | < 300 nM | ≤ 1000 nM | Cn1c2nc(Cc3n[nH]cc3F)sc2c2cnn(Cc3cc[nH]n3)c(=O)c21 |
| < 300 nM | < 300 nM | < 300 nM | ≤ 1000 nM | Cn1c2nc(Cn3ccc([N+](=O)[O-])n3)sc2c2cnn(Cc3cc[nH]n3)c(=O)c21 |
| < 300 nM | < 300 nM | < 300 nM | ≤ 1000 nM | Cn1c2nc(Cc3cc[nH]n3)sc2c2cnn(Cc3c[nH]cn3)c(=O)c21 |
| < 300 nM | < 300 nM | < 300 nM | ≤ 1000 nM | Cn1c2nc(Cc3cc[nH]n3)sc2c2cnn(Cc3ccnc(N)n3)c(=O)c21 |
